Consider 1 substance from article PMC7177456, “A Peptidomimetic Fluorescent Probe to Detect the Trypsin β2 Subunit of the Human 20S Proteasome” (International Journal of Molecular Sciences, 2020).

The target in experiment [1] is T1, human 20S proteasome, trypsin-like (β2) subunit (Homo sapiens, UniProt P49720+Q99436).
T1 construct: purchased Boston Biochem (Cambridge, MA, USA)
Nature of the experiment: Kinetic parameters of substrate 1 with human 20S proteasome (allosteric fit). The settings on record: for kcat/Km: calculated from the kcat and Km values; for Km / kcat: 20S proteasome 1.07 × 10^−9 M. It is filed as biochemical. The procedure:
(§1) For enzymatic studies, the human 20S proteasome, 26S proteasome, and 20S immunoproteasome were purchased from Boston Biochem (Cambridge, MA, USA). The 20S proteasome concentration for library deconvolution was in the nanomolar range, and this proteasome entity was used for the main study. Deconvolution of the peptide libraries was performed using the iterative solution method. Dimethyl sulfoxide (DMSO) was used as a solvent for preparation of the stock solution (5 mg/mL) for each lyophilized sub-library. This stock solution was diluted ten times using an assay buffer (50 mM Tris/HCl buffer (pH 8.2)) for the 20S and 20Si proteasome, and for 26S, the buffer was supplemented with 40 mM KCl, 2 mM EDTA, 1 mM DTT, 100 µM ATP, and 50 µg/mL bovine serum albumin (BSA). The volume composition of each well of the 96-well plate was: 20 µL library, 160 µL assay buffer, and 20 µL 20S proteasome solution at a concentration of 1.07 × 10^−9 M. Absorbance or fluorescence measurements were performed on a FluoroStar OMEGA multimode microplate reader (BMG, Ortenberg, Germany). Absorbance increases were monitored at 410 nm. The excitation and emission wavelengths were 320 and 450 nm respectively, for the ABZ/ANB. Enzymatic hydrolysis of the peptide was performed in the assay buffer at 37 °C and continued over 60 min.
The procedures to determine the kinetic constants Km and kcat are described below. Increasing concentrations of substrate 1 ranged from 1 × 10^−6 to 2 × 10^−5 M. In parallel, a kinetic assay with the artificial activator SDS at 0.01% was also performed. The data were fitted to an allosteric plot using GraphPad prism v6.0 (GraphPad Software Inc., La Jolla, CA, USA). The specificity constants (kcat/ Km) were calculated from the kcat and Km values. Measurements were performed using a 20S proteasome concentration of 1.07 × 10^−9 M. Three to five measurements were performed for each compound dilution (the systematic error, defined as the standard deviation, never surpassed 20%). The initial hydrolysis rates were used as the amount of enzymatic activity for the tested compounds. All kinetic study details and kinetic parameters have been described elsewhere.

Experiment [2] has as its system 20S proteasome. Briefly: Proteolytic cleavage pattern by RP-HPLC. It is filed as biochemical, human. As to conditions: substrate 3.1 × 10^−6 M, 20S proteasome 1.07 × 10^−9 M, one hour. The procedure:
For each sample of the diluted substrate (concentration; 3.1 × 10^−6 M), an appropriate amount of proteasome (1.07 × 10^−9 M) was added, and the solution was incubated for 5, 30, and 60 min. The proteolytic reaction was monitored by RP-HPLC.

For experiment [3], the system named is 20S proteasome. Briefly: Titration: 20S proteasome assay detection limit. As to conditions: substrate 1.34 × 10^−5 M; 20S proteasome 0.05 to 2 nM; 37 °C, 30 min; 320/450 nm; triplicate. The experiment is classed as biochemical, human. The procedure:
A total of 160 µL assay buffer was added to each well of the 96-well plate, containing a constant substrate concentration (1.34 × 10^−5 M) (20 µL), followed by 20 µL of the 20S proteasome, with concentrations ranging from 0.05 to 2 nM. In total, seven different concentrations were used. The excitation and emission wavelengths were 320 and 450 nm, respectively. Enzymatic hydrolysis of the peptide was performed in the previously described buffer at 37 °C and continued over 30 min. A linear fragment of the curve was chosen, and the slope was calculated for each system. All measurements were performed in triplicate.

For experiment [4], the system named is 20S proteasome, 26S proteasome and immunoproteasome 20S. Briefly: Cleavage of substrate 1 by 20S, 26S and 20S immunoproteasome. The experiment is classed as biochemical, human. As to conditions: 20S vs 26S vs 20S immunoproteasome, equimolar concentrations; initial screening. How it is done:
as §1

The mark [5] stands for this setting: in the presence of artificial activator SDS 0.01%, pH 8.2, 37 °C.

Turning to “ABZ–Dap(O2(Cbz))–Dap(GO1)–Dap(O2(Cbz))–Arg–ANB–NH2 [substrate 1]”, the kcat/Km was 3.23e+07 M⁻¹ s⁻¹ in experiment [1] (in the presence of artificial activator SDS 0.01%) and 7.61e+07 M⁻¹ s⁻¹ in experiment [1] (substrate alone, without SDS). Also, the Km in experiment [1] (setting [5]) turned out to be 6.84 ± 0.12 µM; in experiment [1] (substrate alone, without SDS, 50 mM Tris/HCl pH 8.2, 37 °C, substrate 1 × 10^−6 to 2 × 10^−5 M, ABZ/ANB fluorescence 320/450 nm, three to five measurements), 3.22 ± 0.02 µM. Further, the kcat amounted to 221 ± 18 s⁻¹ in experiment [1] (setting [5]) and 245 ± 21 s⁻¹ in experiment [1] (substrate alone, without SDS, 50 mM Tris/HCl pH 8.2, 37 °C). Moreover, in experiment [1] (substrate alone, characteristic for allosteric enzymes), the “type of cleavage kinetics” value is listed as “sigmoidal kinetics”. In the experiment on 20S proteasome [2], the cleavage products entry is “two products with retention times corresponding to ABZ–Dap(O2(Cbz))–Dap(GO1)–Dap(O2(Cbz))–Arg–OH (2) (tR = 18.24) and ABZ–NH2 (tR = 7.89)”. Also, in the experiment with 20S proteasome [3], the “20S proteasome assay detection limit” value was 10^−11 M. In addition, the “selectivity among proteasome entities” value in experiment [4] is “selectively proteolyzed by the 20S proteasome”.
